Data as given in patent US20130287890A1, “INHIBITOR OF THE PRODUCTION OF ADVANCED GLYCATION END PRODUCTS” (UENO FINE CHEMICALS INDUSTRY, LTD., priority 2012, published 2013).

How the values were obtained:
pentosidine = assay: Quantitative determination of pentosidine (FSK Pentosidine kit) after reaction at 120° C. for 60 minutes; format: biochemical; conditions: Test Example 1; for Pentosidine: lysine + arginine 0.2 g each, carbohydrate 3.40 g each, 120° C., 60 minutes
Procedure: Amino acids, carbohydrates and a phosphate buffer solution were charged in a 30 mL glass test tube in each amount shown in Table 1, followed by sealing and stirring. […] The filtrate thus obtained was used as a sample. The amino acids and carbohydrates used are as follows. Using a pentosidine measurement kit “FSK Pentosidine (registered trademark)” (manufactured by Fushimi Pharmaceutical Co., Ltd.), quantitative determination of pentosidine was performed. Thirty (30) or more minutes before use, reagents and pentosidine solid-phase plates were put to room temperature. After dilution of the sample, a 50 μL aliquot of the sample was dispensed to a pentosidine solid plate attached to the kit, and 50 μL of a first antibody solution was dispensed into wells other than the wells for measurement of reagent blank value. After the sample and the antibody solution were mixed by shaking the plate at 300 rpm for 1 minute, the solution was reacted at 37° C. for 1 hour. Next, the reaction solution was discarded, and 200 μL of rinsing fluid was dispensed to wash the plate. The washing was performed for 3 times. After liquid on the plate was removed, 100 μL of a second antibody solution was dispensed into wells other than the wells for measurement of reagent blank value. After the solution was mixed by shaking the plate at 300 rpm for 1 minute, the solution was reacted at 25° C. for 1 hour. Then, the reaction solution was discarded, and the plate was washed for 3 times with 200 μL of rinsing fluid again. Liquid on the plate was removed, and 100 μL of a color coupler was dispensed and left to stand for 10 minutes under a light shielding condition. Finally, 100 μL of a reaction stop solution was dispensed, and within 10 minutes after the dispensing, measurement was performed at main wavelength 450 nm/reference wavelength 630 nm using a micro-plate reader. The concentration of pentosidine was determined using the calibration curve of a pentosidine standard solution, based on measurement values of the sample.

CML = assay: Quantitative determination of CML (CircuLex ELISA kit) after reaction at 120° C. for 60 minutes; format: biochemical; conditions: Test Example 1; for CML: lysine + arginine 0.2 g each, carbohydrate 3.40 g each, 120° C., 60 minutes
Procedure: Amino acids, carbohydrates and a phosphate buffer solution were charged in a 30 mL glass test tube in each amount shown in Table 1, followed by sealing and stirring. […] The filtrate thus obtained was used as a sample. The amino acids and carbohydrates used are as follows. Using CircuLex CML/Nε-(carboxymethyl) lysine ELISA kit (manufactured by CycLex Co., Ltd.), quantitative determination of CML was performed. Thirty (30) or more minutes before use, reagents and CML solid-phase wells were put to room temperature. […] By performing dilution with standard dilution buffers, standards 1 to 7 were prepared. The sample was diluted as necessary with sample dilution buffers. A CML-HSA standard and 60 μL of the sample were dispensed into a 96-well plate, which is not an accessory to the kit. Next, ultrapure water (Milli-Q water) was added to a first antibody powder, and by diluting with sample dilution buffers, a first antibody solution was prepared, and then 60 μL of the antibody solution was dispensed into the plate and mixed. […] Then, the reaction solution was discarded, and 350 μL of rinsing fluid was dispensed to wash the plate. The washing was performed for 4 times. After liquid on the plate was removed, 100 μL of a second antibody solution was dispensed and reacted at 25° C. for 1 hour while being shaken at 300 rpm. The reaction solution was discarded, and the plate was washed for 4 times with 350 μL of rinsing fluid again. Liquid on the plate was removed, and 100 μL of a color coupler was dispensed. Then, the solution was left to stand for 10 minutes under a light shielding condition while being shaken at 300 rpm. Finally, 100 μL of a reaction stop solution was dispensed, and within 30 minutes after the dispensing, measurement was performed at main wavelength 450 nm/reference wavelength 595 nm using a micro-plate reader. The concentration of CML was determined using the calibration curve of a CML standard solution, based on measurement values of the sample.

human RAGE = target: T1, human RAGE (Homo sapiens, UniProt Q15109); assay: RAGE antagonist activity of reaction samples (120° C., 60 minutes) mixed with AGE-BSA, NF-κB luciferase assay in C6 glioma cells; format: cell-based, rat; conditions: Test Example 2
T1 construct: human RAGE plasmid (including full-length human RAGE cDNA); expressed in transfected cells; host or cells: C6 glioma cells carrying pNF-κB-Luc plasmid and human RAGE plasmid
T1 sequence (Q15109 23-404): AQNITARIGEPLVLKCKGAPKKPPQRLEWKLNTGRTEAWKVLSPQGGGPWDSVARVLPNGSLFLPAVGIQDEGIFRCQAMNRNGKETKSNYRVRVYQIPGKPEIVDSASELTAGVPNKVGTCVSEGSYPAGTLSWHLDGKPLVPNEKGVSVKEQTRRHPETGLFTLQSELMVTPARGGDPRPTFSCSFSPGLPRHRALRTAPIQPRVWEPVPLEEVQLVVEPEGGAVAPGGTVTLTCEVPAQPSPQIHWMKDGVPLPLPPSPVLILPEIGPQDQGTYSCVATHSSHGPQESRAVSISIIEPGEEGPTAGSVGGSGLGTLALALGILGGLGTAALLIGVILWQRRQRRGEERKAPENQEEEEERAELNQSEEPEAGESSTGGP
Procedure: Food-derived proteins, carbohydrates and a phosphate buffer solution were charged in a 30 mL glass test tube in each amount shown in Table 6, followed by sealing and stirring, and then the mixture was reacted in an autoclave at 120° C. for 60 minutes. Next, the reactant was fractionated by centrifugation at 3,000 rpm for 3 hours using an ultrafiltration unit (VIVA SPIN 20, manufactured by Sartorius Corporation). The obtained low molecular weight fraction was used as a sample for determination of 3-DG, while the obtained high molecular weight fraction was used as a sample for the determination of fluorescent AGEs, RAGE agonist activity and RAGE antagonist activity. Food-derived proteins and carbohydrates used are as follows:
Using Luciferase Assay System (manufactured by Promega Corporation), evaluation of RAGE antagonist activity was performed. (Day 1) According to the methods disclosed in Diabetes, 2006, vol. 55, pp. 2510-2522, C6 glioma cells into which pNF-κB-Luc plasmid (manufactured by Stratagene Corporation) and human RAGE plasmid (including full-length human RAGE cDNA) have been introduced were seeded at 100 μL/well into a 96-well plate and cultured in a CO2 incubator until the cells were confluent. For the culture, 10% FBS/DMEM medium was used. (Day 2) The medium was removed, and after wells were washed with 300 μL of serum-free DMEM medium, 100 μL of 0.1% FBS/DMEM medium was slowly added. Then, the medium was incubated overnight in a CO2 incubator. (Day 3) The sample was diluted using the medium, and 50 μL of the diluted sample, AGE-BSA in which AGE was formed with glyceraldehydes (50 μg/mL) as a control, and the mixture of diluted sample and AGE-BSA were added to wells. After incubation in a CO2 incubator for 4 hours, the medium was removed and wells were washed 2 times with 300 μL of PBS(−). Then, 25 μL of 1× lysis buffer was added on ice. After the plate was shaken for 15 seconds, 20 μl of lysate was charged in a new white plate. Further 100 μL of a luciferase assay reagent was added, and a fluorescence intensity was measured by a luminometer. Using 5 μl of lysate, quantitative determination of protein was also performed.

[1] = gliadin + carbohydrate, mixture of sample and AGE-BSA, protein 0.1 μg/mL, relative to control (AGE-BSA) = 1
[2] = lactalbumin + carbohydrate, mixture of sample and AGE-BSA, protein 10 μg/mL, relative to control (AGE-BSA) = 1
[3] = lactic casein + carbohydrate, mixture of sample and AGE-BSA, protein 1 μg/mL, relative to control (AGE-BSA) = 1
[4] = ovalbumin + carbohydrate, mixture of sample and AGE-BSA, protein 10 μg/mL, relative to control (AGE-BSA) = 1
[5] = soybean casein + carbohydrate, mixture of sample and AGE-BSA, protein 0.1 μg/mL, relative to control (AGE-BSA) = 1
[6] = amino acids, compared with the test section 1 containing only sucrose

RAGE antagonist activity (human RAGE; [1]) | RAGE antagonist activity (human RAGE; [2]) | RAGE antagonist activity (human RAGE; [3]) | RAGE antagonist activity (human RAGE; [4]) | RAGE antagonist activity (human RAGE; [5]) | RAGE antagonist activity (human RAGE; test sections 2 and 5 (ovalbumin, lactalbumin) compared with sections 1 and 4 containing sucrose) | SMILES | Pentosidine (pentosidine) | CML (CML) | production of pentosidine (pentosidine; [6]) | production of CML (CML; [6])
1.00 | 0.58 | 1.50 | 1.80 | 1.01 | – | OC[C@H]1O[C@@](CO)(O[C@H]2O[C@H](CO)[C@@H](O)[C@H](O)[C@H]2O)[C@@H](O)[C@@H]1O [Sucrose, reference compound] | 8.4 nmol/1 g of amino acid | 17.4 nmol/1 g of amino acid | – | –
0.90 | 0.54 | 1.42 | 1.74 | 0.99 | decreased | OC[C@@H](O)[C@@H](O[C@H]1O[C@H](CO)[C@@H](O)[C@H](O)[C@H]1O)[C@H](O)[C@@H](O)CO [Maltitol] | 3.4 nmol/1 g of amino acid | 15.0 nmol/1 g of amino acid | decreased | decreased
